For the test, the system named is Collagen-Induced Arthritis (CIA). Description: Collagen-Induced Arthritis, ethyl esters (CIA-EE, Example 1): clinical arthritis severity and incidence. As to conditions: for arthritis severity score / arthritis severity score as area under the curve (AUC): days 18-45; for arthritis severity score as area under the curve (AUC): FIG. 2. Type of test: in vivo, Male DBA/1O1aHsd mice. The source says: The anti-arthritic activity of DHA, DPAn6, DHA/DPAn6 (DHA S-oil ratio) and DHA/EPA (fish oil ratio) ethyl esters (EE) in a chronic mouse model of inflammation, Collagen-Induced Arthritis (CIA), was studied.
Male DBA/1O1aHsd mice (3.5-4 weeks of age) were randomized by weight and enrolled in the study after a three day quarantine in which animals were fed the AlN-93G diet with a modified base fat: 1 part flax seed oil (flax), 9 parts hydrogenated coconut oil (HCOC) and 21 parts high-oleic safflower oil (HO-SAFF). 15 animals were enrolled per study group, with the exception of the No Disease control that had 4 animals. Study groups consisted of:
The appropriate ethyl esters were blended into the base diet to provide approximately 2500 and 5000 mg/kg polyunsaturated fatty acid (PUFA) per day. The human equivalent doses (HED) were approximately 12 g/day and 22 g/day, respectively. The 2500 mg/kg EE diets contained the following fat blend: 1 part flax, 12 parts HCOC and 23 parts HO-SAFF. The 5000 mg/kg EE diets contained a fat blend consisting of: 1 part flax, 5 parts HCOC and 20 parts HO-SAFF. All study diets provided a total of 7% fat. Animals were fed study diets for approximately 30 days prior to the first collagen injection at day 0 and remained on the diets until study termination (day 45). Animals in the No Disease control and Dexamethasone groups were fed the diet containing OA-EE. Following a second collagen injection on day 21, arthritis severity was scored daily. Blood samples were collected at day 21 and day 45. Joints, 6 per an animal, were collected for histology and pathology on day 45.
Data was analyzed and compared by one-way ANOVA using the Bonferroni post-test to compare treatment groups to respective placebo control and to make comparisons between treatment groups (GraphPad, Prism, Version 4.0). Effects were considered to be statistically significant at p<0.05.
Arthritis severity was assessed from day 18 to 45; a score of 0 represented an animal devoid of clinical arthritis symptoms and a score of 5 represented advanced clinical arthritis. Scores from 0-5 (most severe) were assigned to each digit on the fore and hind limbs based on erythema, swelling and mobility and the mean arthritis severity per animal was determined.
The incidence of disease was reduced in animals treated with DHA-EE (FIG. 3A/B). A clinical arthritis score greater than 0 was considered diseased. The incidence of disease at day 45 was 13% in animals treated with 2500 mg/kg DHA-EE, as compared to 100% disease incidence in OA-EE (placebo) control animals.

The structures appear in SMILES notation.

With `CC/C=C\C/C=C\C/C=C\C/C=C\C/C=C\C/C=C\CCC(=O)OCC` [DHA-EE], the arthritis severity score entry is “reduced arthritis severity” (2500 mg/kg in diet, FIG. 1A) and “reduced arthritis severity” (5000 mg/kg in diet, FIG. 1B). Also, the “arthritis severity score as area under the curve (AUC)” value is, setting by setting: (2500 mg/kg, vs 2500 mg/kg OA-EE (placebo) control) “significantly reduced arthritis severity”; (5000 mg/kg, vs 5000 mg/kg OA-EE (placebo) control) “significantly reduced arthritis severity”. Also, the “arthritis severity, comparison between treatment groups” value (5000 mg/kg) is recorded as “more potent than DHA/EPA-EE”. For the same compound, the “incidence of disease (clinical arthritis score greater than 0)” value (day 45, 2500 mg/kg, FIG. 3A) was 13%. In addition, the “arthritis severity, comparison with dexamethasone” value (dose not stated in sentence (2500 and 5000 mg/kg tested), dexamethasone 0.1 mg/kg) is reported as “as effective as dexamethasone”.

Values taken from patent US20130137767A1, “Methods and Compositions for Treating Arthritis with Docosahexaenoic Acid” (DSM IP ASSETS B.V., priority 2010, published 2013).
